Test results taken from patent US11180474B2 (BRISTOL-MYERS SQUIBB COMPANY, priority 2016, dated 2021).

How the values were obtained:
human TLR7 = target: T1, human TLR7 (Homo sapiens, UniProt Q9NYK1); assay: TLR7 inhibition reporter assay (HEK-Blue cells, SEAP reporter, gardiquimod stimulation); format: cell-based; settings: HEK-Blue cells overexpressing human TLR7, gardiquimod 7.5 μM
T1 construct: host or cells: HEK-Blue cells
T1 sequence (Q9NYK1 27-1049): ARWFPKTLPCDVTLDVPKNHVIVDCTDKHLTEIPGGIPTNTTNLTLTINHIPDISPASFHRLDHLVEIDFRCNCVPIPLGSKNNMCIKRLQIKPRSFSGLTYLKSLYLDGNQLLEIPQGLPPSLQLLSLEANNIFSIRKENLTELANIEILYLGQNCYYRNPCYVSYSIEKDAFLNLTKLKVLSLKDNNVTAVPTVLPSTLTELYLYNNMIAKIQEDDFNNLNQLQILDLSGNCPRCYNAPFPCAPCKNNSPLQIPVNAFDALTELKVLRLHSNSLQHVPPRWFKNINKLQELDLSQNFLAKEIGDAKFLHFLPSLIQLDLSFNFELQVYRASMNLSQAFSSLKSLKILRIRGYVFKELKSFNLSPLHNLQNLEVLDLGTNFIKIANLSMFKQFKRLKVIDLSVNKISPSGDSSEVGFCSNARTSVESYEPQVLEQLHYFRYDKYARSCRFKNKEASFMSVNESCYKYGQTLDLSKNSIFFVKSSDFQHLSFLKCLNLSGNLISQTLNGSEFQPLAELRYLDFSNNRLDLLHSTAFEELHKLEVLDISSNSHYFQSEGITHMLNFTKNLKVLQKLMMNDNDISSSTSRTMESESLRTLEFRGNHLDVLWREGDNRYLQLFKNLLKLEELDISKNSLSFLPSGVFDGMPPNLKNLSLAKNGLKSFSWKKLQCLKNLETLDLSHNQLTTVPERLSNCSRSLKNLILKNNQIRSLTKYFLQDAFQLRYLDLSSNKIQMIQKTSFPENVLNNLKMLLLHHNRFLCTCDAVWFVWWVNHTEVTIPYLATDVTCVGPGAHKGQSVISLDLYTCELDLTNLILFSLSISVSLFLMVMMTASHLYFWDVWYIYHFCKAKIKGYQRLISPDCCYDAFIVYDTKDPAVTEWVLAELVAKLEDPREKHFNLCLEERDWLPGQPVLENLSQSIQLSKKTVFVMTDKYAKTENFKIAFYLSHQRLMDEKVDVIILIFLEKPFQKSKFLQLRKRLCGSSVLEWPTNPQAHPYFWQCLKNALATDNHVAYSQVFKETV
Outline: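 22 h, 37° C, 5% CO2 incubation; compounds 0.05 nM-50 μM final; TLR7 cells 15000/well, TLR8 20,000/well. Readout: SEAP via HEK-Blue Detection medium. % inhibition = signal reduction versus agonist + DMSO wells, referenced to known inhibitor.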

human TLR9 = target: T2, human TLR9 (Homo sapiens, UniProt Q9NR96); assay: TLR9 inhibition reporter assay (HEK-Blue cells, SEAP reporter, ODN2006 stimulation); format: cell-based; settings: HEK-Blue cells overexpressing human TLR9, ODN2006 5 nM
T2 construct: host or cells: HEK-Blue cells
T2 sequence (Q9NR96 26-1032): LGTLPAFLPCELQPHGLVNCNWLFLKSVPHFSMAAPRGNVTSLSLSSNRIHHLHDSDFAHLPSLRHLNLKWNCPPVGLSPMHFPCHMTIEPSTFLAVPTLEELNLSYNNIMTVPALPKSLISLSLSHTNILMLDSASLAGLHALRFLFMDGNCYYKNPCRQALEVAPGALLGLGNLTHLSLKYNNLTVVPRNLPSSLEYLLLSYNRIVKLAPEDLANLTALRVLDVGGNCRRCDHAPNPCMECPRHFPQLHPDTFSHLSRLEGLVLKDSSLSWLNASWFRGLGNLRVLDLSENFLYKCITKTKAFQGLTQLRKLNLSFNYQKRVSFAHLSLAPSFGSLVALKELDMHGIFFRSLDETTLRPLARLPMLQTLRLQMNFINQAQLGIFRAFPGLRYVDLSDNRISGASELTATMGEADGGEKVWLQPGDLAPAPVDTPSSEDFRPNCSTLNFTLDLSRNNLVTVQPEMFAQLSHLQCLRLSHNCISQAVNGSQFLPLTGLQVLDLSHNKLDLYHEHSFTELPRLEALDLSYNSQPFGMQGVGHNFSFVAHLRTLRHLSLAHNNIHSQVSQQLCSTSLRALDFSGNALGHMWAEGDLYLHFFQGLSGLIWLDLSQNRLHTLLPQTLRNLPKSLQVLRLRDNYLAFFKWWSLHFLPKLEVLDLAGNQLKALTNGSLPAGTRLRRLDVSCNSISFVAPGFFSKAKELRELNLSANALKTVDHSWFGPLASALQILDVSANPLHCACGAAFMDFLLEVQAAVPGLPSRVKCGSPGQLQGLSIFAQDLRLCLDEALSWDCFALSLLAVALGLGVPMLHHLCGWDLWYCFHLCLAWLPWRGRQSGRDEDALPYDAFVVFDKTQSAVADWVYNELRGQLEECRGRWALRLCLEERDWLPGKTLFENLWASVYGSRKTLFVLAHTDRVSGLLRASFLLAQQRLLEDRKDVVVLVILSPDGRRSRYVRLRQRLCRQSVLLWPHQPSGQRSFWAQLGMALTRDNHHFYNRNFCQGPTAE
Outline: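 Compound treatment: 30 min, RT, 0.05 nM–50 μM final. Agonist: TLR7 gardiquimod 7.5 μM; TLR8 R848 15.9 μM; TLR9 ODN2006 5 nM. Incubation 22 h, 37 °C, 5% CO2. Readout SEAP, HEK-Blue Detection.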

IC50 (human TLR7) [nM] | IC50 (human TLR9) [nM] | Compound
372 | 15300 | COc1ccc(-c2[nH]c3ccc(C4CCN(C(=O)CNC[C@@H](F)C(C)(C)O)CC4)cc3c2C(C)C)cc1OC [Example 251, (R)-1-(4-(2-(3,4-dimethoxyphenyl)-3-isopropyl-1H-indol-5-yl)piperidin-1-yl)-2-((2-fluoro-3-hydroxy-3-methylbutyl)amino) ethan-1-one]
19 | 2200 | COc1ccc(-c2[nH]c3ccc(C4CCN(C(=O)CNCCOCCO)CC4)cc3c2C(C)C)cc1OC [Example 230, 1-(4-(2-(3,4-dimethoxyphenyl)-3-isopropyl-1H-indol-5-yl)piperidin-1-yl)-2-((2-(2-hydroxyethoxy)ethyl)amino)ethan-1-one]
17 | 3580 | COc1ccc(-c2[nH]c3ccc(C4CCN(CC(=O)NCCO)CC4)cc3c2C(C)C)cc1OC [Example 276, 2-(4-(2-(3,4-dimethoxyphenyl)-3-isopropyl-1H-indol-5-yl)piperidin-1-yl)-N-(2-hydroxyethyl) acetamide]
48 | ≥ 50000 | COc1ccc(-c2[nH]c3ccc(C4CCN(C(=O)CN5CCOCC5)CC4)cc3c2C(C)C)cc1OC [Example 223, 1-(4-(2-(3,4-dimethoxyphenyl)-3-isopropyl-1H-indol-5-yl)piperidin-1-yl)-2-morpholinoethan-1-one]
11 | 2320 | CNCC(=O)N1CCC(c2ccc3[nH]c(-c4ccc(OC)c(OC)c4)c(C(C)C)c3c2)CC1 [Example 256, 1-(4-(2-(3,4-dimethoxyphenyl)-3-isopropyl-1H-indol-5-yl)piperidin-1-yl)-2-(methylamino)ethan-1-one]
204 | 6990 | COc1ccc(-c2[nH]c3ccc(C4CCN(C(=O)CN5CCC[C@H](C(=O)N6CC7CNCC7C6)C5)CC4)cc3c2C(C)C)cc1OC (stereo partly shown) [Example 299, 1-(4-(2-(3,4-dimethoxyphenyl)-3-isopropyl-1H-indol-5-yl)piperidin-1-yl)-2-((3 S)-3-(octahydropyrrolo[3,4-c]pyrrole-2-carbonyl)piperidin-1-yl)ethan-1-one]
1200 | 2220 | COc1ccc(-c2[nH]c3ccc(C4CCN(C(=O)CN5CCC[C@H](C(=O)N6CCN(Cc7ccc(Br)cc7)CC6)C5)CC4)cc3c2C(C)C)cc1OC [Example 294, (S)-2-(3-(4-(4-bromobenzyl)piperazine-1-carbonyl)piperidin-1-yl)-1-(4-(2-(3,4-dimethoxyphenyl)-3-isopropyl-1H-indol-5-yl)piperidin-1-yl)ethan-1-one]
33 | 163 | CCN(CC)C(=O)C1CCCN(CC(=O)N2CCC(c3ccc4[nH]c(-c5ccc(OC)c(OC)c5)c(C(C)C)c4c3)CC2)C1 (stereo not shown) [Example 248, 1-(2-(4-(2-(3,4-dimethoxyphenyl)-3-isopropyl-1H-indol-5-yl)piperidin-1-yl)-2-oxoethyl)-N,N-diethylpiperidine-3-carboxamide]
16 | 1420 | COc1ccc(-c2[nH]c3ccc(C4CCN(C(=O)CN5CCCC(CO)C5)CC4)cc3c2C(C)C)cc1OC (stereo not shown) [Example 226, 1-(4-(2-(3,4-dimethoxyphenyl)-3-isopropyl-1H-indol-5-yl)piperidin-1-yl)-2-(3-(hydroxymethyl)piperidin-1-yl)ethan-1-one]
10 | 445 | COc1ccc(-c2[nH]c3ccc(C4CCN(C(=O)C[C@H](C)N)CC4)cc3c2C(C)C)cc1OC [Example 253, (S)-3-amino-1-(4-(2-(3,4-dimethoxyphenyl)-3-isopropyl-1H-indol-5-yl)piperidin-1-yl)butan-1-one]
40 | 564 | COc1ccc(-c2[nH]c3ccc(C4CCN(C(=O)CN5CCC[C@@H](C(=O)N6CCN(C(C)C)CC6)C5)CC4)cc3c2C(C)C)cc1OC [Example 302, (R)-1-(4-(2-(3,4-dimethoxyphenyl)-3-isopropyl-1H-indol-5-yl)piperidin-1-yl)-2-(3-(4-isopropylpiperazine-1-carbonyl)piperidin-1-yl)ethan-1-one]
7 | 565 | COc1ccc(-c2[nH]c3ccc(C4CCN(CC(=O)NC5CCN(C(C)C)CC5)CC4)cc3c2C(C)C)cc1OC [Example 273, 2-(4-(2-(3,4-dimethoxyphenyl)-3-isopropyl-1H-indol-5-yl)piperidin-1-yl)-N-(1-isopropylpiperidin-4-yl)acetamide]
68 | 829 | COc1ccc(-c2[nH]c3ccc(C4CCN(CC(=O)N5CCN(C)CC5)CC4)cc3c2C(C)C)cc1OC [Example 274, 2-(4-(2-(3,4-dimethoxyphenyl)-3-isopropyl-1H-indol-5-yl)piperidin-1-yl)-1-(4-methylpiperazin-1-yl) ethan-1-one]
48 | 3050 | COc1ccc(-c2[nH]c3ccc(C4CCN(C(=O)CN5CCC[C@H](C(=O)NCC#N)C5)CC4)cc3c2C(C)C)cc1OC [Example 297, (S)—N-(cyanomethyl)-1-(2-(4-(2-(3,4-dimethoxyphenyl)-3-isopropyl-1H-indol-5-yl)piperidin-1-yl)-2-oxoethyl)piperidine-3-carboxamide]
120 | 307 | COc1ccc(-c2[nH]c3ccc(C4CCN(C(=O)CN[C@H]5CC[C@H](N)CC5)CC4)cc3c2C(C)C)cc1OC [Example 232, 2-(((1r,4r)-4-aminocyclohexyl)amino)-1-(4-(2-(3,4-dimethoxyphenyl)-3-isopropyl-1H-indol-5-yl)piperidin-1-yl)ethan-1-one]
64 | 2750 | COc1ccc(-c2[nH]c3ccc(C4CCN(C(=O)CN5CCC[C@@H](C(=O)N(C)C(C)C)C5)CC4)cc3c2C(C)C)cc1OC [Example 304, (R)-1-(2-(4-(2-(3,4-dimethoxyphenyl)-3-isopropyl-1H-indol-5-yl)piperidin-1-yl)-2-oxoethyl)-N-isopropyl-N-methylpiperidine-3-carboxamide]
17 | 586 | COc1ccc(-c2[nH]c3ccc(C4CCN(C(=O)CN5CCCC(C(=O)NC6CCN(C(C)C)CC6)C5)CC4)cc3c2C(C)C)cc1OC (single isomer, unassigned) [Example 281, 1-(2-(4-(2-(3,4-dimethoxyphenyl)-3-isopropyl-1H-indol-5-yl)piperidin-1-yl)-2-oxoethyl)-N-(1-isopropylpiperidin-4-yl)piperidine-3-carboxamide]
